Assay results published in article PMC3735429, “Plasmodium falciparum encodes a conserved active inhibitor-2 for Protein Phosphatase type 1: perspectives for novel anti-plasmodial therapy” (BMC Biology, 2013).
Where two headings read alike, the source gives them in different places. No end group written: not given here.

Columns and labels:
HB3 P. falciparum strain = experiment: Growth inhibition assay of P. falciparum HB3 (SYBR Green I, flow cytometry); assay type: cell-based, Plasmodium falciparum
Description: (§1) Assays were carried out in 96-well plates with a starting parasitemia of 0.5% at a haematocrit of 1% using SYBR Green I [81]. The peptides were added to the culture at different concentrations ranging from 80 μM to 1.25 μM (final concentrations) in a volume of 250 μl of RPMI-AlbuMAX (0.5%) and incubated for further 72 hr to allow all stages to complete at least one cycle. Cultures were stained for 30 minutes in the dark with SYBR Green I 1X (Invitrogen) diluted in 20 mM Tris pH8.8, 138 mM NaCl, and fixed with 1% paraformaldehyde. Fixed pRBC were stored at 4°C in the dark until flow cytometry analysis.
Parasite growth was assessed by flow cytometry on a FACSCalibur (Becton-Dickinson). Infected and uninfected erythrocytes were gated on the basis of their forward scatter (FSC) and side scatter (SSC) signals. Fluorescence analysis (Green fluorescence, FL-1 filter) was performed with CellQuest software (FACScan; BD Biosciences) on a total of 100,000 acquired events. Fluorescence was observed as described by Izumiyama et al.[82] on a two-parameters dot plot (FL1-SSC). Fluorescence of non-infected RBC was adjusted to plot between 10^0 and 10^1. Results are expressed in percentage of fluorescence among total RBC. […]

3D7 P. falciparum strain = experiment: Growth inhibition assay of P. falciparum 3D7 (SYBR Green I, flow cytometry); assay type: cell-based, Plasmodium falciparum
Description: as §1
Parasite growth was assessed by flow cytometry on a FACSCalibur (Becton-Dickinson). Infected and uninfected erythrocytes were gated on the basis of their forward scatter (FSC) and side scatter (SSC) signals. Fluorescence analysis (Green fluorescence, FL-1 filter) was performed with CellQuest software (FACScan; BD Biosciences) on a total of 100,000 acquired events. Fluorescence was observed as described by Izumiyama et al.[82] on a two-parameters dot plot (FL1-SSC). Fluorescence of non-infected RBC was adjusted to plot between 10^0 and 10^1. Results are expressed in percentage of fluorescence among total RBC.
The drug concentration resulting in 50% inhibition of parasite growth (IC50) was assessed by determining the drug concentration corresponding to 50% of the parasitaemia observed in the peptide-free control wells. The IC50 value was calculated using the ICEstimator software based on a non-linear regression analysis of log-based dose–response curves. Results are presented as means ± sem.

Plasmodium falciparum = conditions: ref [1]-[3]; cited from earlier work
Description: During its life cycle, Plasmodium falciparum, the deadliest malaria parasite for humans, undergoes several successive rounds of mitosis to amplify parasite populations and consequently to increase the rate of its transmission. Among the essential actors in the growth and division of the parasite are kinases and phosphatases. […] Subsequently, the identification of kinases and phosphatases and their central functions in P. falciparum[4-9] ...

[1] = target: His6-PfPP1 (Plasmodium falciparum)
Xenopus oocytes = experiment: Induction of germinal vesicle breakdown (GVBD, G2/M transition) in microinjected Xenopus oocytes; assay type: cell-based; conditions: 100 ng injected; monitored 15 h; sets of 20 oocytes, repeated at least three times
Description: Preparation of Xenopus oocytes and microinjection experiments were performed as previously described. Briefly, in each assay, 20 oocytes removed from at least two or three different animals were microinjected with His6-PfI2 (wild type, deleted or mutated) recombinant proteins or PfI2/PfI3 derived peptides. […] Okadaic acid was used as a positive control for ability of oocytes to respond to PP inhibition (data not shown). Regarding the pre-injection experiments, deleted, mutated His6-PfI2 proteins or PfI2/PfI3 derived peptides were pre-injected (100 ng) in the oocytes 1 hour before the His6-PfI2WT injection (100 ng). GVBD was detected by the appearance of a white spot at the apex of the animal pole after 15 hours. Oocyte extracts were prepared as follow: oocytes were lysed in buffer (50 mM HEPES pH 7.4, 500 mM NaCl, 0.05% SDS, 0.5% Triton X100, 5 mM MgCl2, 1 mg/ml bovine serum albumin, 10 μg/ ml leupeptin, 10 μg/ml aprotinin, 10 μg/ml soybean trypsin inhibitor, 10 μg/ml benzamidine, 1 mM PMSF, 1 mM sodium vanadate) and centrifuged at 4°C for 15 min at 10,000 g. To detect His6-PfI2 proteins in injected extracts, electrophoresis followed by western-blot analysis performed on oocytes extracts. The membranes were developed with anti-His mAb antibody (Qiagen).

PfPP1 [2] = experiment: PfPP1 phosphatase activity assay with pNPP substrate; assay type: biochemical, Plasmodium falciparum; conditions: recombinant PfPP1 pre-incubated 30 min at 37°C with different concentrations of protein before pNPP; maximal effect; means of four independent experiments in duplicate
Description: The activity of PfPP1 with p-nitro-phenylphosphate (pNPP) was assayed as previously described. To investigate the role of PfI2 recombinant proteins or PfI2/PfI3 derived peptides on His6-PfPP1 activity, different amounts of proteins were added to 1 μg of PfPP1 recombinant protein and preincubated for 30 min at 37°C before testing the PfPP1 phosphatase activity. Okadaic acid was used as control (data not show). Results are presented as mean of increase or decrease of phosphatase activity in comparison to His6-PfPP1 incubated in the reaction buffer.

PfPP1 [3] = experiment: Yeast two-hybrid PfI2-PfPP1 interaction; assay type: binding, Plasmodium falciparum; conditions: SD medium lacking leucine, tryptophan, histidine and adenine; 4 days
Description: The full length PfPP1 was cloned into the pGBKT7 vector containing the DNA binding domain of gal4 (Gal4-BD) and wild-type, deleted or mutated PfI2 (PfI2WT, PfI2(1–94), PfI2(19–144), PfI2W16A, PfI2Y103A) into pGADT7 containing the gal4 activation domain (Gal4-AD). The pGBKT7-Gal4-BD-PfPP1 construct was used to transform Y187 strain and maintained on SD media without tryptophan (SD-W). The pGADT7-Gal4-AD-PfI2 constructs were used to transform AH 109 strain and maintained on SD media lacking leucine (SD-L). Mating these two haploid strains results in the formation of diploid strain, which is viable on SD media lacking leucine and tryptophan (SD-LW). Interaction of PfPP1 with the different versions of PfI2 proteins were evaluated by their capacity to grow on selective media: SD medium lacking leucine, tryptophan and histidine (SD-LWH) and SD medium lacking leucine, tryptophan, histidine and adenine (SD-LWHA) for 4 days. Yeasts transformed with empty vector or with pGBKT7 laminine were used as controls.

Molecule: VKKKKIKREIKIKVVRWKVVRW [P5]
- IC50 (HB3 P. falciparum strain; 72 hr, 2 different batches, means ± sem, read-out: HB3 IC50): 8.79 µM
- IC50 (3D7 P. falciparum strain; 72 hr, 7 independent experiments, 3 batches of peptide, means ± sem, read-out: 3D7 IC50): 9.72 µM
- parasite growth inhibition (3D7 P. falciparum strain; at 80 μM, 72 hr, blood stage 3D7, means of seven independent experiments in duplicate): up to 90%

Molecule: VKKKKIKREIKIKKTISWKKTISW [P1]
- IC50 (HB3 P. falciparum strain; HB3 strain, 72 h): 15 µM
- IC50 (3D7 P. falciparum strain; 3D7 strain, 72 h): 23.8 µM

Molecule: C=C1[C@@H](O)[C@@H]2O[C@]3(CC[C@H](/C=C/[C@@H](C)[C@@H]4CC(C)=C[C@@]5(O[C@H](C[C@@](C)(O)C(=O)O)CC[C@H]5O)O4)O3)CC[C@H]2O[C@@H]1[C@@H](O)C[C@H](C)[C@H]1O[C@@]2(CCCCO2)CC[C@H]1C [okadaic acid]
- inhibition of parasite growth in vitro (Plasmodium falciparum): drastically inhibited parasite growth in vitro

B1: His6-PfI2WT (natural protein)
chain: MKKKVDKSVTKKTISWDEVTINEQDKERGSRMKILEPNTPFNFILMDSASEDEASKYGDVKGSDEGQNNIADDLINKLNQLVEKQENKGVSNIDFKEKRKKHYNEYKMLQKLRKSGTLDDIDEEYKPDNKDSNCDNSNMNESEE
- phosphatase activity of recombinant PfPP1 on pNPP after pre-incubation for 30 min at 37°C with different concentrations of PfI2WT; inhibition [1]: 80%

B2: PfI2WT: wild-type recombinant His-tagged P. falciparum inhibitor-2, 144 amino acids (protein)
chain: MKKKVDKSVTKKTISWDEVTINEQDKERGSRMKILEPNTPFNFILMDSASEDEASKYGDVKGSDEGQNNIADDLINKLNQLVEKQENKGVSNIDFKEKRKKHYNEYKMLQKLRKSGTLDDIDEEYKPDNKDSNCDNSNMNESEE
modifications: left off: His6, end not stated, kept
- GVBD induced (Xenopus oocytes): ~ 85%
- decrease in PfPP1 phosphatase activity (PfPP1 [2]): up to 80%
- growth of diploid yeast with PfPP1 on SD-LWHA (stringent conditions) (PfPP1 [3]): still able to grow
